# What was measured:
# Format in all cases: in vivo
# Glycine max (GLXMA) = test: Pre-emergence herbicidal evaluation, soyabeans
# In short: (§1)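 Visual injury ratings are taken 2 to 4 weeks after treatment. Before that, seeds are planted in soil-filled pots and sprayed at once with the compound in aqueous acetone, dosed at about 0.0125 to 0.4 kg per hectare, and the pots are grown on greenhouse benches.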
# Hordeum vulgare (HORVW) [1] = test: Pre-emergence herbicidal evaluation, winter barley
# In short: as §1
# Oryza sativum (ORYSA) [2] = test: Pre-emergence herbicidal evaluation, rice
# In short: as §1
# [3] = system: Triticum aestivum (TRZAW); test: Pre-emergence herbicidal evaluation, winter wheat
# In short: as §1
# [4] = system: Abutilon theophrasti (ABUTH); test: Pre-emergence herbicidal evaluation, velvetleaf
# In short: as §1
# [5] = system: Ambrosia artemiisifolia (AMBEL); test: Pre-emergence herbicidal evaluation, ragweed
# In short: as §1
# [6] = system: Ipomoea hederacea (IPOHE); test: Pre-emergence herbicidal evaluation, morning glory
# In short: as §1
# Lamium purpureum (LAMPU) [7] = test: Pre-emergence herbicidal evaluation, purple deadnettle
# In short: as §1
# [8] = system: Matricaria inodora (MATIN); test: Pre-emergence herbicidal evaluation, mayweed
# In short: as §1
# Solanum nigrum (SOLNI) [9] = test: Pre-emergence herbicidal evaluation, black nightshade
# In short: as §1
# Stellaria media (STEME) [10] = test: Pre-emergence herbicidal evaluation, chickweed
# In short: as §1
# [11] = system: Alopecurus myosuroides (ALOMY); test: Pre-emergence herbicidal evaluation, black grass
# In short: as §1
# [12] = system: Echinochloa grus galli (ECHCG); test: Pre-emergence herbicidal evaluation, barnyard grass
# In short: as §1
# Setaria viridis (SETVI) [13] = test: Pre-emergence herbicidal evaluation, green foxtail
# In short: as §1
# Hordeum vulgare (HORVW) [14] = test: Post-emergence herbicidal evaluation, winter barley; details: rated 2 to 4 weeks after treatment
# In short: (§2)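 Each compound, dissolved in acetone and diluted with water, is sprayed onto seedling plants at dosages equivalent to about 0.03 to 0.4 kg per hectare per pot. The plants then stay on greenhouse benches under usual practice and are scored between 2 and 4 weeks later, where 9 means death and 0 means growth like untreated controls.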
# Oryza sativum (ORYSA) [15] = test: Post-emergence herbicidal evaluation, rice; details: rated 2 to 4 weeks after treatment
# In short: as §2
# [16] = system: Triticum aestivum (TRZAW); test: Post-emergence herbicidal evaluation, winter wheat; details: rated 2 to 4 weeks after treatment
# In short: as §2
# Zea mays (ZEAMX) = test: Post-emergence herbicidal evaluation, maize; details: rated 2 to 4 weeks after treatment
# In short: as §2
# [17] = system: Abutilon theophrasti (ABUTH); test: Post-emergence herbicidal evaluation, velvetleaf; details: rated 2 to 4 weeks after treatment
# In short: as §2
# [18] = system: Ambrosia artemiisifolia (AMBEL); test: Post-emergence herbicidal evaluation, ragweed; details: rated 2 to 4 weeks after treatment
# In short: as §2
# Galium aparine (GALAP) = test: Post-emergence herbicidal evaluation, cleaver; details: rated 2 to 4 weeks after treatment
# In short: as §2
# Lamium purpureum (LAMPU) [19] = test: Post-emergence herbicidal evaluation, purple deadnettle; details: rated 2 to 4 weeks after treatment
# In short: as §2
# [20] = system: Matricaria inodora (MATIN); test: Post-emergence herbicidal evaluation, mayweed; details: rated 2 to 4 weeks after treatment
# In short: as §2
# Solanum nigrum (SOLNI) [21] = test: Post-emergence herbicidal evaluation, black nightshade; details: rated 2 to 4 weeks after treatment
# In short: as §2
# Stellaria media (STEME) [22] = test: Post-emergence herbicidal evaluation, chickweed; details: rated 2 to 4 weeks after treatment
# In short: as §2
# Setaria viridis (SETVI) [23] = test: Post-emergence herbicidal evaluation, green foxtail; details: rated 2 to 4 weeks after treatment
# In short: as §2
smiles,measurement,setting,value
"Cc1cc(OC=CCC(F)(F)F)nc(Oc2cc(C(F)(F)F)nn2C)c1 [Example 2, 2-(1-Methyl-3-trifluoromethylpyrazol-5-yloxy)-4-methyl-6-(4,4,4-trifluorobut-1-enyloxy)pyridine]",GLXMA rating,Glycine max (GLXMA); dose 0.013 kg/ha,0 (0 - No effect)
same,GLXMA rating,Glycine max (GLXMA); dose 0.025 kg/ha,1 (1 - Trace effect)
same,GLXMA rating,Glycine max (GLXMA); dose 0.4 kg/ha,4 (4 - Injury)
same,HORVW rating,Hordeum vulgare (HORVW) [1]; dose 0.013 kg/ha,0 (0 - No effect)
same,HORVW rating,Hordeum vulgare (HORVW) [1]; dose 0.025 kg/ha,0 (0 - No effect)
same,HORVW rating,Hordeum vulgare (HORVW) [1]; dose 0.1 kg/ha,3 (3 - Moderate effect)
same,HORVW rating,Hordeum vulgare (HORVW) [1]; dose 0.4 kg/ha,5 (5 - Definite injury)
same,ORYSA rating,Oryza sativum (ORYSA) [2]; dose 0.013 kg/ha,0 (0 - No effect)
same,ORYSA rating,Oryza sativum (ORYSA) [2]; dose 0.025 kg/ha,1 (1 - Trace effect)
same,ORYSA rating,Oryza sativum (ORYSA) [2]; dose 0.1 kg/ha,2 (2 - Slight effect)
same,ORYSA rating,Oryza sativum (ORYSA) [2]; dose 0.4 kg/ha,3 (3 - Moderate effect)
same,TRZAW rating,[3]; dose 0.013 kg/ha,0 (0 - No effect)
same,TRZAW rating,[3]; dose 0.025 kg/ha,0 (0 - No effect)
same,TRZAW rating,[3]; dose 0.1 kg/ha,1 (1 - Trace effect)
same,TRZAW rating,[3]; dose 0.4 kg/ha,3 (3 - Moderate effect)
same,ABUTH rating,[4]; dose 0.013 kg/ha,1 (1 - Trace effect)
same,ABUTH rating,[4]; dose 0.025 kg/ha,4 (4 - Injury)
same,ABUTH rating,[4]; dose 0.1 kg/ha,6 (6 - Herbicidal effect)
same,ABUTH rating,[4]; dose 0.4 kg/ha,9 (9 - Complete kill)
same,AMBEL rating,[5]; dose 0.013 kg/ha,1 (1 - Trace effect)
same,AMBEL rating,[5]; dose 0.025 kg/ha,3 (3 - Moderate effect)
same,AMBEL rating,[5]; dose 0.1 kg/ha,8 (8 - Approaching complete kill)
same,AMBEL rating,[5]; dose 0.4 kg/ha,9 (9 - Complete kill)
same,IPOHE rating,[6]; dose 0.013 kg/ha,1 (1 - Trace effect)
same,IPOHE rating,[6]; dose 0.025 kg/ha,3 (3 - Moderate effect)
same,IPOHE rating,[6]; dose 0.1 kg/ha,3 (3 - Moderate effect)
same,IPOHE rating,[6]; dose 0.4 kg/ha,7 (7 - Good herbicidal effect)
same,LAMPU rating,Lamium purpureum (LAMPU) [7]; dose 0.013 kg/ha,8 (8 - Approaching complete kill)
same,LAMPU rating,Lamium purpureum (LAMPU) [7]; dose 0.025 kg/ha,8 (8 - Approaching complete kill)
same,LAMPU rating,Lamium purpureum (LAMPU) [7]; dose 0.1 kg/ha,9 (9 - Complete kill)
same,LAMPU rating,Lamium purpureum (LAMPU) [7]; dose 0.4 kg/ha,9 (9 - Complete kill)
same,MATIN rating,[8]; dose 0.013 kg/ha,4 (4 - Injury)
same,MATIN rating,[8]; dose 0.025 kg/ha,6 (6 - Herbicidal effect)
same,MATIN rating,[8]; dose 0.1 kg/ha,8 (8 - Approaching complete kill)
same,MATIN rating,[8]; dose 0.4 kg/ha,9 (9 - Complete kill)
same,SOLNI rating,Solanum nigrum (SOLNI) [9]; dose 0.013 kg/ha,0 (0 - No effect)
same,SOLNI rating,Solanum nigrum (SOLNI) [9]; dose 0.025 kg/ha,1 (1 - Trace effect)
same,SOLNI rating,Solanum nigrum (SOLNI) [9]; dose 0.1 kg/ha,8 (8 - Approaching complete kill)
same,SOLNI rating,Solanum nigrum (SOLNI) [9]; dose 0.4 kg/ha,9 (9 - Complete kill)
same,STEME rating,Stellaria media (STEME) [10]; dose 0.013 kg/ha,0 (0 - No effect)
same,STEME rating,Stellaria media (STEME) [10]; dose 0.025 kg/ha,0 (0 - No effect)
same,STEME rating,Stellaria media (STEME) [10]; dose 0.1 kg/ha,9 (9 - Complete kill)
same,STEME rating,Stellaria media (STEME) [10]; dose 0.4 kg/ha,9 (9 - Complete kill)
same,ALOMY rating,[11]; dose 0.013 kg/ha,1 (1 - Trace effect)
same,ALOMY rating,[11]; dose 0.025 kg/ha,1 (1 - Trace effect)
same,ALOMY rating,[11]; dose 0.1 kg/ha,7 (7 - Good herbicidal effect)
same,ALOMY rating,[11]; dose 0.4 kg/ha,9 (9 - Complete kill)
same,ECHCG rating,[12]; dose 0.013 kg/ha,0 (0 - No effect)
same,ECHCG rating,[12]; dose 0.025 kg/ha,2 (2 - Slight effect)
same,ECHCG rating,[12]; dose 0.1 kg/ha,8 (8 - Approaching complete kill)
same,ECHCG rating,[12]; dose 0.4 kg/ha,9 (9 - Complete kill)
same,SETVI rating,Setaria viridis (SETVI) [13]; dose 0.013 kg/ha,5 (5 - Definite injury)
same,SETVI rating,Setaria viridis (SETVI) [13]; dose 0.025 kg/ha,6 (6 - Herbicidal effect)
same,SETVI rating,Setaria viridis (SETVI) [13]; dose 0.1 kg/ha,9 (9 - Complete kill)
same,SETVI rating,Setaria viridis (SETVI) [13]; dose 0.4 kg/ha,9 (9 - Complete kill)
same,HORVW rating,Hordeum vulgare (HORVW) [14]; dose 0.03 kg/ha,3 (3 - Moderate effect)
same,HORVW rating,Hordeum vulgare (HORVW) [14]; dose 0.1 kg/ha,3 (3 - Moderate effect)
same,HORVW rating,Hordeum vulgare (HORVW) [14]; dose 0.4 kg/ha,3 (3 - Moderate effect)
same,ORYSA rating,Oryza sativum (ORYSA) [15]; dose 0.03 kg/ha,2 (2 - Slight effect)
same,ORYSA rating,Oryza sativum (ORYSA) [15]; dose 0.1 kg/ha,3 (3 - Moderate effect)
same,ORYSA rating,Oryza sativum (ORYSA) [15]; dose 0.4 kg/ha,3 (3 - Moderate effect)
same,TRZAW rating,[16]; dose 0.03 kg/ha,2 (2 - Slight effect)
same,TRZAW rating,[16]; dose 0.1 kg/ha,3 (3 - Moderate effect)
same,TRZAW rating,[16]; dose 0.4 kg/ha,3 (3 - Moderate effect)
same,ZEAMX rating,Zea mays (ZEAMX); dose 0.03 kg/ha,2 (2 - Slight effect)
same,ZEAMX rating,Zea mays (ZEAMX); dose 0.1 kg/ha,4 (4 - Injury)
same,ZEAMX rating,Zea mays (ZEAMX); dose 0.4 kg/ha,5 (5 - Definite injury)
same,ABUTH rating,[17]; dose 0.03 kg/ha,8 (8 - Approaching complete kill)
same,ABUTH rating,[17]; dose 0.1 kg/ha,8 (8 - Approaching complete kill)
same,ABUTH rating,[17]; dose 0.4 kg/ha,9 (9 - Complete kill)
same,AMBEL rating,[18]; dose 0.03 kg/ha,5 (5 - Definite injury)
same,AMBEL rating,[18]; dose 0.1 kg/ha,6 (6 - Herbicidal effect)
same,AMBEL rating,[18]; dose 0.4 kg/ha,8 (8 - Approaching complete kill)
same,GALAP rating,Galium aparine (GALAP); dose 0.03 kg/ha,5 (5 - Definite injury)
same,GALAP rating,Galium aparine (GALAP); dose 0.1 kg/ha,7 (7 - Good herbicidal effect)
same,GALAP rating,Galium aparine (GALAP); dose 0.4 kg/ha,9 (9 - Complete kill)
same,LAMPU rating,Lamium purpureum (LAMPU) [19]; dose 0.03 kg/ha,8 (8 - Approaching complete kill)
same,LAMPU rating,Lamium purpureum (LAMPU) [19]; dose 0.1 kg/ha,8 (8 - Approaching complete kill)
same,LAMPU rating,Lamium purpureum (LAMPU) [19]; dose 0.4 kg/ha,8 (8 - Approaching complete kill)
same,MATIN rating,[20]; dose 0.03 kg/ha,6 (6 - Herbicidal effect)
same,MATIN rating,[20]; dose 0.1 kg/ha,8 (8 - Approaching complete kill)
same,MATIN rating,[20]; dose 0.4 kg/ha,9 (9 - Complete kill)
same,SOLNI rating,Solanum nigrum (SOLNI) [21]; dose 0.03 kg/ha,7 (7 - Good herbicidal effect)
same,SOLNI rating,Solanum nigrum (SOLNI) [21]; dose 0.1 kg/ha,8 (8 - Approaching complete kill)
same,SOLNI rating,Solanum nigrum (SOLNI) [21]; dose 0.4 kg/ha,8 (8 - Approaching complete kill)
same,STEME rating,Stellaria media (STEME) [22]; dose 0.03 kg/ha,4 (4 - Injury)
same,STEME rating,Stellaria media (STEME) [22]; dose 0.1 kg/ha,6 (6 - Herbicidal effect)
same,STEME rating,Stellaria media (STEME) [22]; dose 0.4 kg/ha,8 (8 - Approaching complete kill)
same,SETVI rating,Setaria viridis (SETVI) [23]; dose 0.03 kg/ha,4 (4 - Injury)
same,SETVI rating,Setaria viridis (SETVI) [23]; dose 0.1 kg/ha,8 (8 - Approaching complete kill)
same,SETVI rating,Setaria viridis (SETVI) [23]; dose 0.4 kg/ha,8 (8 - Approaching complete kill)

# Reference: US6852673B2, “Herbicidal pyridine compounds” (BASF Aktiengesellschaft, priority 1998, dated 2005)
